Read-outs that look alike come from different tables or passages of the source.
How the values were obtained:
MM1.S cells = assay: CellTiter-Glo cell viability assay, MM1.S cells; assay type: cell-based, human; settings: for IC50: Homo sapiens
Procedure: Cell viability in the presence of varying concentrations of the above listed compounds at different time points was used to assess cytotoxicity and the effect of the compounds on cell proliferation.
Cell Viability Assay—Cell viability was measured by the CellTiter-GlO® cell viability assay from Promega (Madison, Wis.). The CellTiter-GlO® Luminescent Cell Viability Assay is a homogeneous method to determine the number of viable cells in culture based on quantitation of the ATP present, which signals the presence of metabolically active cells. Following treatment, CellTiter-GlO® is added to treatment wells and incubated at 37° C. luminescence values were measured at using a Molecular Devices Spectramax microplate reader
(§1) Single Agent Studies—Cells were grown to 70% confluency, trypsinized, counted, and seeded in 96 well flat-bottom plates at a final concentration of 2.5×10^3-5×10^3 cells/well (Day 0). Cells were allowed to incubate in growth media for 24 hours. Treatment with the test agents or standard agents began on Day 1 and continued for 72 hours. At the 72 hour timepoint, treatment containing media was removed. Viable cell numbers are quantified by the CellTiter-GlO® cell viability assay as described above. Results from these studies were used to calculate an IC50 value (concentration of drug that inhibits cell growth by 50 percent of control) for each compound.
Data Collection—For single agent and combination studies, data from each experiment was collected and expressed as % Cell Growth using the following calculation: Cell Growth=(ftest/fvehicle)×100
Where ftest is the fluorescence of the tested sample, and fvehicle is the fluorescence of the vehicle in which the drug is dissolved. Dose response graphs and IC50 values were generated using Prism 6 software (GraphPad) using the following equation: […]
Where X is the logarithm of concentration and Y is the response. Y starts at the Bottom and goes to Top with a sigmoid shape.
(§2) Cell Viability Assay—Cell viability was measured by the CellTiter-Glo® cell viability assay Promega (Madison, Wis.). The CellTiter-Glo® Luminescent Cell Viability Assay is a homogeneous method to determine the number of viable cells in culture based on quantitation of the ATP present, which signals the presence of metabolically active cells. Following treatment, CellTiter-Glo® is added to treatment wells and incubated at 37° C. luminescence values were measured at using a Molecular Devices Spectramax microplate reader.
as §1, with “agents” for “agents or standard agents”, “72-hour time point, treatment-containing” for “72 hour timepoint, treatment containing”, “CellTiter-Glo®” for “CellTiter-GlO®”, “above. Experiments were run with triplicate concentrations to determine growth inhibitory activity.” for “above.”
(§3) Data Collection—For single agent and combination studies, data from each experiment was collected and expressed as % Cell Growth using the following calculation: % Cell Growth=(ftest/fvehicle)×100
(§4) Where ftest is the luminescence of the tested sample, and fvehicle is the luminescence of the vehicle in which the drug is dissolved. Dose response graphs and IC50 values were generated using Prism 6 software (GraphPad).

MDA-157 = assay: CellTiter-Glo cell viability assay, MDA-157; assay type: cell-based; settings: Breast; for IC50: MDA-157, 72 hours
Procedure: as §2
as §1, with “agents” for “agents or standard agents”, “72-hour time point, treatment-containing” for “72 hour timepoint, treatment containing”, “CellTiter-Glo®” for “CellTiter-GlO®”, “above. Experiments were run with triplicate concentrations to determine growth inhibitory activity.” for “above.”
as §3, §4

MCF7 = assay: CellTiter-Glo cell viability assay, MCF7; assay type: cell-based; settings: Breast; for IC50: Homo sapiens, MCF7, 72 hours
Procedure: as §2
as §1, with “agents” for “agents or standard agents”, “72-hour time point, treatment-containing” for “72 hour timepoint, treatment containing”, “CellTiter-Glo®” for “CellTiter-GlO®”, “above. Experiments were run with triplicate concentrations to determine growth inhibitory activity.” for “above.”
as §3, §4

GIST882 = assay: CellTiter-Glo cell viability assay, GIST882; assay type: cell-based; settings: GIST; for IC50: Homo sapiens, GIST882, 72 hours
Procedure: as §2
as §1, with “agents” for “agents or standard agents”, “72-hour time point, treatment-containing” for “72 hour timepoint, treatment containing”, “CellTiter-Glo®” for “CellTiter-GlO®”, “above. Experiments were run with triplicate concentrations to determine growth inhibitory activity.” for “above.”
as §3, §4

AN3CA = assay: CellTiter-Glo cell viability assay, AN3CA; assay type: cell-based; settings: Uterine; for IC50: Homo sapiens, AN3-CA, 72 hours
Procedure: as §2
as §1, with “agents” for “agents or standard agents”, “72-hour time point, treatment-containing” for “72 hour timepoint, treatment containing”, “CellTiter-Glo®” for “CellTiter-GlO®”, “above. Experiments were run with triplicate concentrations to determine growth inhibitory activity.” for “above.”
as §3, §4

SKUT-1 = assay: CellTiter-Glo cell viability assay, SKUT-1; assay type: cell-based; settings: Uterine; for IC50: Homo sapiens, SK-UT-1, SKUT-1, 72 hours
Procedure: as §2
as §1, with “agents” for “agents or standard agents”, “72-hour time point, treatment-containing” for “72 hour timepoint, treatment containing”, “CellTiter-Glo®” for “CellTiter-GlO®”, “above. Experiments were run with triplicate concentrations to determine growth inhibitory activity.” for “above.”
as §3, §4

H929 = assay: CellTiter-Glo cell viability assay, H929; assay type: cell-based; settings: Myeloma; for IC50: Homo sapiens, NCI-H929, H929, 72 hours
Procedure: as §2
as §1, with “agents” for “agents or standard agents”, “72-hour time point, treatment-containing” for “72 hour timepoint, treatment containing”, “CellTiter-Glo®” for “CellTiter-GlO®”, “above. Experiments were run with triplicate concentrations to determine growth inhibitory activity.” for “above.”
as §3, §4

MV411 = assay: CellTiter-Glo cell viability assay, MV411; assay type: cell-based; settings: AML; for IC50: Homo sapiens, MV4-11, MV411, 72 hours
Procedure: as §2
as §1, with “agents” for “agents or standard agents”, “72-hour time point, treatment-containing” for “72 hour timepoint, treatment containing”, “CellTiter-Glo®” for “CellTiter-GlO®”, “above. Experiments were run with triplicate concentrations to determine growth inhibitory activity.” for “above.”
as §3, §4

SUDHL-10 = assay: CellTiter-Glo cell viability assay, SUDHL-10; assay type: cell-based; settings: Lymphoma; for IC50: Homo sapiens, SU-DHL10, SUDHL-10, 72 hours
Procedure: as §2
as §1, with “agents” for “agents or standard agents”, “72-hour time point, treatment-containing” for “72 hour timepoint, treatment containing”, “CellTiter-Glo®” for “CellTiter-GlO®”, “above. Experiments were run with triplicate concentrations to determine growth inhibitory activity.” for “above.”
as §3, §4

OCI-LY3 = assay: CellTiter-Glo cell viability assay, OCI-LY3; assay type: cell-based; settings: Lymphoma; for IC50: Homo sapiens, OCI-LY3, 72 hours
Procedure: as §2
as §1, with “agents” for “agents or standard agents”, “72-hour time point, treatment-containing” for “72 hour timepoint, treatment containing”, “CellTiter-Glo®” for “CellTiter-GlO®”, “above. Experiments were run with triplicate concentrations to determine growth inhibitory activity.” for “above.”
as §3, §4

Mino = assay: CellTiter-Glo cell viability assay, Mino; assay type: cell-based; settings: Lymphoma; for IC50: Homo sapiens, 72 hours
Procedure: as §2
as §1, with “agents” for “agents or standard agents”, “72-hour time point, treatment-containing” for “72 hour timepoint, treatment containing”, “CellTiter-Glo®” for “CellTiter-GlO®”, “above. Experiments were run with triplicate concentrations to determine growth inhibitory activity.” for “above.”
as §3, §4

JEKO = assay: CellTiter-Glo cell viability assay, JEKO; assay type: cell-based; settings: Lymphoma; for IC50: 72 hours
Procedure: as §2
as §1, with “agents” for “agents or standard agents”, “72-hour time point, treatment-containing” for “72 hour timepoint, treatment containing”, “CellTiter-Glo®” for “CellTiter-GlO®”, “above. Experiments were run with triplicate concentrations to determine growth inhibitory activity.” for “above.”
as §3, §4

A549 = assay: CellTiter-Glo cell viability assay, A549; assay type: cell-based; settings: NSCLC; for IC50: Homo sapiens, A549, 72 hours
Procedure: as §2
as §1, with “agents” for “agents or standard agents”, “72-hour time point, treatment-containing” for “72 hour timepoint, treatment containing”, “CellTiter-Glo®” for “CellTiter-GlO®”, “above. Experiments were run with triplicate concentrations to determine growth inhibitory activity.” for “above.”
as §3, §4

H460 = assay: CellTiter-Glo cell viability assay, H460; assay type: cell-based; settings: NSCLC; for IC50: Homo sapiens, NCI-H460, H460, 72 hours
Procedure: as §2
as §1, with “agents” for “agents or standard agents”, “72-hour time point, treatment-containing” for “72 hour timepoint, treatment containing”, “CellTiter-Glo®” for “CellTiter-GlO®”, “above. Experiments were run with triplicate concentrations to determine growth inhibitory activity.” for “above.”
as §3, §4

A2780 = assay: CellTiter-Glo cell viability assay, A2780; assay type: cell-based; settings: Ovarian; for IC50: Homo sapiens, A2780, 72 hours
Procedure: as §2
as §1, with “agents” for “agents or standard agents”, “72-hour time point, treatment-containing” for “72 hour timepoint, treatment containing”, “CellTiter-Glo®” for “CellTiter-GlO®”, “above. Experiments were run with triplicate concentrations to determine growth inhibitory activity.” for “above.”
as §3, §4

HDAC1 = HDAC1 (Homo sapiens (Human), UniProt Q13547); assay: In vitro HDAC enzyme inhibition, mobility shift; assay type: biochemical; settings: purified enzyme
HDAC1, sequence (Q13547 whole entry): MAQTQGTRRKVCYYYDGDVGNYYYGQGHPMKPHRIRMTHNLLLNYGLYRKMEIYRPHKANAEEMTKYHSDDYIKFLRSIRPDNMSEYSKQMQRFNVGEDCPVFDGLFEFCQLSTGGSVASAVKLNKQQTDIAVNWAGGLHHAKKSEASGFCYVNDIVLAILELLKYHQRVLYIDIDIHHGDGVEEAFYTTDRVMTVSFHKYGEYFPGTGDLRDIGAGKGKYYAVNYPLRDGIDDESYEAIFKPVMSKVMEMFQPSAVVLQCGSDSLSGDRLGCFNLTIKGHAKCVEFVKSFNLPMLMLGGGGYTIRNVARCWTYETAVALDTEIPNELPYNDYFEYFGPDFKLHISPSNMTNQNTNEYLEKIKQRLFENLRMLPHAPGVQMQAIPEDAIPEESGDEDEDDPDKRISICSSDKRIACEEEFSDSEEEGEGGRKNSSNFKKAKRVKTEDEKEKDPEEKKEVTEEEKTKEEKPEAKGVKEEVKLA
Procedure: (§5) Purified histone deacetylase enzymes 1, 3, 6, 10 were incubated with fluorescently labeled substrate and test compounds in a standardized reaction mixture in 384 well plates. Upon termination of the reaction, samples were introduced onto microfluidic chips. Samples migrate through channels in the chips and product and substrate are separated based on the difference in their charge and mass (electrophoretic mobility shift). Enzyme activity is measured by direct comparison of the fluorescence in the product and substrate peaks and the results presented in Table 4.

HDAC10 = HDAC10 (Homo sapiens (Human), UniProt Q969S8); assay: In vitro HDAC enzyme inhibition, mobility shift; assay type: biochemical; settings: purified enzyme
HDAC10, sequence (Q969S8 whole entry): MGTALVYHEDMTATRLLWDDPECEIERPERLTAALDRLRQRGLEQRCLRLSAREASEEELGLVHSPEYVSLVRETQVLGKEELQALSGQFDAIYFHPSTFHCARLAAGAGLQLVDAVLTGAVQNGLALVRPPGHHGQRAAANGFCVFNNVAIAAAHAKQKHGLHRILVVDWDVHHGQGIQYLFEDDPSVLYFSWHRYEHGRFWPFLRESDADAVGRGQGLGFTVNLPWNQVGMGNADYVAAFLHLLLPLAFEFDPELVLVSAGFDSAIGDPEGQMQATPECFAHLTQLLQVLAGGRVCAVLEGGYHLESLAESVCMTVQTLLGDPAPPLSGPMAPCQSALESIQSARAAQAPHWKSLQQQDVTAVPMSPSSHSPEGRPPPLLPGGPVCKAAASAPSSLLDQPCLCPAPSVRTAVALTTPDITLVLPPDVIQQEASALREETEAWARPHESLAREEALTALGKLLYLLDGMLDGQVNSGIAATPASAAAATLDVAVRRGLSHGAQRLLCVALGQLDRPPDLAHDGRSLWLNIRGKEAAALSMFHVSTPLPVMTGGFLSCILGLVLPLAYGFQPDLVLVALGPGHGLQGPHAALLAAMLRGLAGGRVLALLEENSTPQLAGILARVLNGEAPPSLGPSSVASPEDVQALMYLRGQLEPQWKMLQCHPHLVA
Procedure: as §5

HDAC3 = HDAC3 (Homo sapiens (Human), UniProt O15379); assay: In vitro HDAC enzyme inhibition, mobility shift; assay type: biochemical; settings: purified enzyme
HDAC3, sequence (O15379 whole entry): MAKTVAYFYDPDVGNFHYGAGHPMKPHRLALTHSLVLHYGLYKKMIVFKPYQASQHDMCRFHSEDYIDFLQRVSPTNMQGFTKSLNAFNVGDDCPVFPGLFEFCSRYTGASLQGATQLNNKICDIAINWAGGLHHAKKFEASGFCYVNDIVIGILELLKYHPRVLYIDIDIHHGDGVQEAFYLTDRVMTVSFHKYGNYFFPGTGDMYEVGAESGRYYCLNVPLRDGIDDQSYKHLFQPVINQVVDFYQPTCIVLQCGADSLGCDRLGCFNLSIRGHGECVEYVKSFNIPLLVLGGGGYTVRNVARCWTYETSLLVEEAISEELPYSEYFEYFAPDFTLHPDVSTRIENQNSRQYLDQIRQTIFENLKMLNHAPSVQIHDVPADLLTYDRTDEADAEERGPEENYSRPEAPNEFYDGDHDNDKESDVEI
HDAC3, sequence (Q9Y618 395-489 partner): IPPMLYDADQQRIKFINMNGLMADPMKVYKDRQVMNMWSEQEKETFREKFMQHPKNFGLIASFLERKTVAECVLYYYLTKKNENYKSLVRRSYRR
Procedure: as §5

HDAC6 = HDAC6 (Homo sapiens (Human), UniProt Q9UBN7); assay: In vitro HDAC enzyme inhibition, mobility shift; assay type: biochemical; settings: purified enzyme
HDAC6, sequence (Q9UBN7 whole entry): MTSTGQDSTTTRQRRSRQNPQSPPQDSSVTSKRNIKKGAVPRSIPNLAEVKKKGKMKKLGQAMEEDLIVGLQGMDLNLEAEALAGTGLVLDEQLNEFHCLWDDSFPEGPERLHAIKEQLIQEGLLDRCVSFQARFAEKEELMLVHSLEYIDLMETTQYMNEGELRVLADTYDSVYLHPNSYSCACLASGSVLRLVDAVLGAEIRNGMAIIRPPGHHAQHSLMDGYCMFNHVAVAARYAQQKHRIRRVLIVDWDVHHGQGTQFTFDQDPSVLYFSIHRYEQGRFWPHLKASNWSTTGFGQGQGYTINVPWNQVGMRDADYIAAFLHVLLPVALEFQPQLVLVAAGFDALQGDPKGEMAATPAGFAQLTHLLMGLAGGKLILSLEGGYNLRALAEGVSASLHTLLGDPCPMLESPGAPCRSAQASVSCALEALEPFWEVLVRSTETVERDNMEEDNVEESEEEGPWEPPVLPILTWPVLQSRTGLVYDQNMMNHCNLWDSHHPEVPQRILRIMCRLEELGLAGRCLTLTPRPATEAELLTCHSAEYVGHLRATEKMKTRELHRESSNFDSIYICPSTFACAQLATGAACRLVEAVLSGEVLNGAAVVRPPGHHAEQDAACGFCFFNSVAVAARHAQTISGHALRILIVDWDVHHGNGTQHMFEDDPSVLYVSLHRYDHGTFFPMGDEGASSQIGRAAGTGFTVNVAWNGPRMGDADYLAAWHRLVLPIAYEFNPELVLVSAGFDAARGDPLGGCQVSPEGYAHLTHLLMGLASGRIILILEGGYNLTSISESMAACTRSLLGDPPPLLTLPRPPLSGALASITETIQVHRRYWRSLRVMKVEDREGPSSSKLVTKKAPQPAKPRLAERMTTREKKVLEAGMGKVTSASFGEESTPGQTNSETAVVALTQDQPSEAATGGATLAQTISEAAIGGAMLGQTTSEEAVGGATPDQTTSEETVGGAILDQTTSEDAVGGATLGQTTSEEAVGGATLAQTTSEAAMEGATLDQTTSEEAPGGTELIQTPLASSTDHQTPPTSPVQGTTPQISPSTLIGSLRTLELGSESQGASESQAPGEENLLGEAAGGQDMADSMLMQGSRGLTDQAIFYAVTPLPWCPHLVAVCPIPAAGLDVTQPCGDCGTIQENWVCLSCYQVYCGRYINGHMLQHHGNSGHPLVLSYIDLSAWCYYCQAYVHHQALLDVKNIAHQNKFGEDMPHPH
Procedure: as §5

[1] = MM1.S cells, 72 hours treatment, read-out: IC50 in MM1.S
[2] = Myeloma, MM1.S, 72 hours (Table 3), read-out: IC50

## O=C(NO)c1ccc(Nc2nc3ccccc3n2CC2CCCCC2)cc1 [ID #1, 4-((1-(cyclohexylmethyl)-1H-benzo[d]imidazol-2-yl)amino)-N-hydroxybenzamide]
MM1.S cells; [1]
  IC50: 0.5 µM
MM1.S cells; [2]
  IC50: 0.5 µM
MM1.S cells; Myeloma, MM1.S
  Improvement ID #1 over ID #3 Percent: 76.08%
  Improvement ID #1 over ID #3 fold: 4.18 fold
MDA-157; MDA-157
  Improvement ID #1 over ID #3 Percent: 63.77%
  Improvement ID #1 over ID #3 fold: 2.76 fold
MDA-157
  IC50: 2.75 µM
MCF7; MCF7
  Improvement ID #1 over ID #3 Percent: 44.79%
  Improvement ID #1 over ID #3 fold: 1.81 fold
MCF7
  IC50: 1.96 µM
GIST882; GIST882
  Improvement ID #1 over ID #3 Percent: 67.66%
  Improvement ID #1 over ID #3 fold: 3.09 fold
GIST882
  IC50: 5.75 µM
AN3CA
  IC50: 1.6 µM
  Improvement ID #1 over ID #3 Percent: 64.99%
  Improvement ID #1 over ID #3 fold: 2.86 fold
SKUT-1
  IC50: 3.8 µM
SKUT-1; SKUT-1
  Improvement ID #1 over ID #3 Percent: 60.21%
  Improvement ID #1 over ID #3 fold: 2.51 fold
H929
  IC50: 0.83 µM
H929; H929
  Improvement ID #1 over ID #3 Percent: 39.86%
  Improvement ID #1 over ID #3 fold: 1.66 fold
MV411; MV411
  Improvement ID #1 over ID #3 Percent: 77.09%
  Improvement ID #1 over ID #3 fold: 4.37 fold
MV411
  IC50: 0.63 µM
SUDHL-10
  IC50: 0.55 µM
SUDHL-10; SUDHL-10
  Improvement ID #1 over ID #3 Percent: 63.58%
  Improvement ID #1 over ID #3 fold: 2.75 fold
OCI-LY3
  IC50: 1.05 µM
OCI-LY3; OCI-LY3
  Improvement ID #1 over ID #3 Percent: 54.15%
  Improvement ID #1 over ID #3 fold: 2.18 fold
Mino
  IC50: 1.2 µM
  Improvement ID #1 over ID #3 Percent: 71.22%
  Improvement ID #1 over ID #3 fold: 3.48 fold
JEKO
  Improvement ID #1 over ID #3 Percent: 56.31%
  Improvement ID #1 over ID #3 fold: 2.29 fold
  IC50: 0.97 µM
A549
  IC50: 2.29 µM
A549; A549
  Improvement ID #1 over ID #3 Percent: 77.10%
  Improvement ID #1 over ID #3 fold: 4.37 fold
H460
  IC50: 3.47 µM
H460; H460
  Improvement ID #1 over ID #3 Percent: 66.86%
  Improvement ID #1 over ID #3 fold: 3.02 fold
A2780
  IC50: 2.03 µM
A2780; A2780
  Improvement ID #1 over ID #3 Percent: 63.62%
  Improvement ID #1 over ID #3 fold: 2.75 fold
HDAC1
  IC50: 0.13 µM
HDAC10
  IC50: 0.137 µM
HDAC3
  IC50: 0.019 µM
HDAC6
  IC50: 0.0064 µM

## O=C(NO)c1ccc(Nc2nc3ccccc3n2C2CCCCCC2)cc1 [ID #3, 4-((1-cycloheptyl-1H-benzo[d]imidazol-2-yl)amino)-N-hydroxybenzamide]
MM1.S cells; [1]
  IC50: 2.1 µM
MM1.S cells; [2]
  IC50: 2.09 µM
MDA-157
  IC50: 7.59 µM
MCF7
  IC50: 3.55 µM
GIST882
  IC50: 17.8 µM
AN3CA
  IC50: 4.57 µM
SKUT-1
  IC50: 9.55 µM
H929
  IC50: 1.38 µM
MV411
  IC50: 2.75 µM
SUDHL-10
  IC50: 1.51 µM
OCI-LY3
  IC50: 2.29 µM
Mino
  IC50: 4.17 µM
JEKO
  IC50: 2.22 µM
A549
  IC50: 10 µM
H460
  IC50: 10.5 µM
A2780
  IC50: 5.58 µM
HDAC1
  IC50: 0.445 µM
HDAC10
  IC50: 3.12 µM
HDAC3
  IC50: 0.079 µM
HDAC6
  IC50: 0.0145 µM
